Experimental data: patent publication US20240254439A1, “METHOD FOR PREPARING TASTE BUD ORGANOIDS USING ANTERIOR TONGUE EPITHELIAL CELLS” (Korea University Research and Business Foundation, priority 2023, published 2024)

Columns and labels:
[1] = tested on: taste bud organoids from anterior tongue epithelial tissue; assay: Differentiation into taste cells in anterior tongue taste bud organoids, immunofluorescence staining of taste cell markers; type: cell-based, mouse
Experimental: (§1) The tongue was collected from a mouse, and dispase II enzyme (2 mg/mL) (Roche, cat #4942078001) diluted in physiological saline was injected into the space between the epithelium and subepithelial connective tissue to expand the tongue tissue ((2) in FIG. 1), and the expanded tongue tissue was cultured in dispase II enzyme dilution at 37° C. for 30 minutes. The epithelial layer is peeled off from the subepithelial connective tissue to separate the epithelial lamina therefrom, and it is cut into as small an area as possible using tools such as sterilized surgical scissors or a knife in trypsin/EDTA (Gibco, cat #25200072) solution. The finely cut tissues were cultured at 37° C. for 30 minutes. Thereafter, the finely cut tissues are subjected to pressure by continuous pipetting to extract cells from the tissue and form a single cell suspension. The cell pellets obtained by centrifuging this suspension are embedded in an extracellular matrix such as Matrigel at an appropriate ratio.
(§2) All culture media are based on basic culture medium (DMEM/F12+1×GlutaMax+1×HEPES+1×N2 supplement+1×B27 supplement+1×penicillin/streptomycin).
(§3) The single cells embedded in the Matrigel were cultured in differentiation medium 1 (FIRNY+SAG) for 4 days, then cultured for 10 days, while replacing the culture medium with differentiation medium 2 (FIRN+SAG+CHIR_SU5402) and changing the medium culture every 2-3 days.
In culturing taste bud organoids from anterior tongue epithelial tissue, it was confirmed by immunofluorescence staining that when SAG-containing basic culture medium was treated with CHIR99021 (CHIR), which stimulates the Wnt and Notch signaling pathways, the differentiation efficiency into type 1, type 2 and type 3 taste cells all increased (FIG. 4).
In order to confirm the optimization of the expression efficiency of markers for cells that make up taste buds in organoids and the differentiation efficiency into cells that make up taste buds by components other than CHIR, CHIR was added after the first 3 days of culture, and organoids were cultured in culture medium in which FGF was removed or SU5402 was additionally added. As a result, it was confirmed by immunofluorescence staining that when FGF was removed or SU5402 was additionally input after 3 days of culture, the differentiation efficiency into type 2 and type 3 taste cells increased (FIG. 6).

[2] = tested on: taste bud organoids from anterior tongue epithelial tissue; assay: Culture efficiency (growth efficiency, size) of taste bud organoids from anterior tongue epithelial tissue; type: cell-based, mouse; details: added alone or in combination to basic culture medium supplemented with R-spondin1 and noggin; SAG added under all these conditions (FIG. 2)
Experimental: as §1, §2, §3

## CNC1CCC(N(Cc2cccc(-c3ccncc3)c2)C(=O)c2sc3ccccc3c2Cl)CC1 (stereo not drawn) [SAG]
[1]; SAG added to basic culture medium with R-spondin1 and noggin, with or without EGF, FGF2, IGF1 (FIG. 3)
  differentiation into type 1, type 2 and type 3 taste cells: differentiation into type 1, type 2 and type 3 taste cells was confirmed
[2]
  growth efficiency or size of the organoid itself: no change

## EGF: growth factor added to the basic culture medium (NSDSECPLSHDGYCLHDGVCMYIEALDKYACNCVVGYIGERCQYRDLKWWELR; UniProt P01133 971-1023, looked up)
[2]
  growth efficiency or size of the organoid itself: no change

## IGF1: insulin-like growth factor 1, protein that regulates cell growth, proliferation and differentiation
[2]
  growth efficiency or size of the organoid itself: no change

## FGF2: fibroblast growth factor 2, protein that regulates cell growth, proliferation and differentiation
[1]; growth factor added to SAG-containing medium with R-spondin1 and noggin, immunofluorescence staining (FIG. 3)
  differentiation efficiency into taste cells: differentiation efficiency increased
[2]
  growth efficiency or size of the organoid itself: no change

## Cc1cnc(-c2cnc(NCCNc3ccc(C#N)cn3)nc2-c2ccc(Cl)cc2Cl)[nH]1 [CHIR99021]
[1]; SAG-containing basic culture medium treated with CHIR99021, immunofluorescence staining (FIG. 4)
  differentiation efficiency into type 1, type 2 and type 3 taste cells: all increased
[1]; treated with CHIR on days 3, 5 or 7, immunofluorescence staining (FIG. 5)
  differentiation efficiency into type 1, type 2 and type 3 taste cells by CHIR-treated time: the earlier treatment with CHIR, the higher the differentiation efficiency

## Cc1c[nH]c(/C=C2\C(=O)Nc3ccccc32)c1CCC(=O)O [SU5402]
[1]; CHIR added after the first 3 days of culture, SU5402 additionally input after 3 days, immunofluorescence staining (FIG. 6)
  differentiation efficiency into type 2 and type 3 taste cells: increased
